Measured values from US8202998B2, “Salts of benzimidazolyl pyridyl ethers and formulations thereof” (Novartis AG, priority 2006, dated 2012).
Values after ≈ are worked out from the molar mass of the structure shown.

Legend:
[1] = Aqueous solubility of API as a function of pH (shake flask method); assay type: physicochemical; details: for solubility at 5 days: aqueous HCl or NaOH solution, ionic strength 0.15 (KCl), thermodynamic from solid, room temperature
Procedure: The aqueous solubility of the compound of Formula I was assessed as a function of pH. Solubility of the compound of Formula I was determined using the shake flask method. The following aqueous solutions of hydrochloric acid (HCl) were prepared: 100, 33.3, 11.1, 3.7, 1.2, 0.4, and 0 mM. The following aqueous solutions of sodium hydroxide (NaOH) were prepared: 1.2 and 0.4 mM. The ionic strength of each of these solutions was adjusted to 0.15 using potassium chloride. Excess amounts of the compound of Formula I were added to a 1 mL aliquot of each of the above solutions in 1.5-mL polypropylene tubes. The tubes were agitated at room temperature for 5 days before analysis. On the day of analysis, the tubes were centrifuged at 15,000 revolutions per minute (rpm) using a microcentrifuge at 22° C. for 20 minutes. The concentration of compound of Formula I in the supernatant was measured by HPLC. The pH of the supernatant was measured using an Orion pH meter, which was calibrated before use.

[2] = Stability: degradation products (DP) and appearance (color) under stress conditions; assay type: physicochemical; parameters: key to CL: A: No change of color; B: Slight discoloration; C: Medium discoloration; D: Strong discoloration; ↓: Suspension; *: Clear solution after stress test; —: no change; x: test not performed
Procedure: Column: Symmetry C18 (Waters), 3.5 μm, 3×150 mm
Mobile phase: A=0.1% TFA in water; B=acetonitrile
Gradient: 20 to 100% B in 10 minutes
Column temperature: 40° C.
Stability of the three salts with respect to color and degradation products were assessed under various conditions.

[3] = Determination of solubility at 25° C.; assay type: physicochemical; details: for solubility: thermodynamic from solid
Procedure: Excess solids were equilibrated in each solvent for over 24 hours at 25° C.±0.1. Concentration in aqueous supernatant was measured by UV and HPLC and concentrations in organic solvents by gravimetry.

[4] = Intrinsic dissolution rate; assay type: physicochemical; details: 37° C.
Procedure: The intrinsic dissolution rate measurements were carried out in 0.5 cm^2 VanKel die assemblies and a pellet pressure of 1 ton. The dissolution was measured using a Cary 50 spectrophotometer with a stirring rate of 200 rpm. The solution medium was held at 37° C. and measurements were made at 276 nm.

[5] = Hygroscopicity (sorption/desorption); assay type: physicochemical
Procedure: Sorption/desorption isotherms were measured using VTI vapor sorption device (DVS-1). Measurements were carried out at 25° C.

[6] = Polymorphism behavior: crystal modification after 24 hours equilibration; assay type: physicochemical
Procedure: A suspension of 6 mg of drug substance in 300 μl of solvent is prepared. Samples are agitated for ≧24 hour at 22° C.±2° C. The solids are collected and investigated for changes.

[7] = Bioavailability study of API and salts of API in dogs; assay type: in vivo, beagle dogs; details: single 100 mg oral dose
Procedure: For comparison, a microemulsion of the free base was also studied. The study was performed with 4 dogs, weighing 9-15 kg each. A crossover design with a washout period of at least 1 week was used. The dogs were given a single oral dose of 100 mg of test compound, administered under fasting conditions.

[8] = pH of 1% solution or suspension; assay type: physicochemical; details: In water
[9] = Thermogravimetry / loss on drying; assay type: physicochemical
[10] = Apparent pKa by pH profile solubility study; assay type: physicochemical; details: determined by a pH profile solubility study
From the text: The apparent pKa of the compound of Formula I refers to the apparent ionization constant of the compound of Formula I as determined by a pH profile solubility study. Thus, the apparent pKa of the compound of Formula I is a complex term consisting of three overlapping ionization constants of the basic nitrogens in Formula I.

[11] = Effect of grinding on morphic properties; assay type: physicochemical
[12] = Aqueous solubility of salts in deionized water
[13] = 0.1% solutions or suspensions, 1 week 80° C. or 50° C., Methanol
[14] = 0.1% solutions or suspensions, 1 week 80° C. or 50° C., Water
[15] = 0.1% solutions or suspensions, 1 week 80° C. or 50° C., pH 1
[16] = 0.1% solutions or suspensions, 1 week 80° C. or 50° C., pH 3
[17] = 0.1% solutions or suspensions, 1 week 80° C. or 50° C., pH 5
[18] = 0.1% solutions or suspensions, 1 week 80° C. or 50° C., pH 7
[19] = 0.1% solutions or suspensions, 1 week 80° C. or 50° C., pH 9
[20] = 0.1% solutions or suspensions, 1 week 80° C. or 50° C., pH 11
[21] = 1-2 weeks 50° C., tight container, 1% in mixture 1
[22] = 1-2 weeks 50° C., tight container, 1% in mixture 2
[23] = 1-2 weeks 50° C./75% r.h., 1% in mixture 1
[24] = 1-2 weeks 50° C./75% r.h., 1% in mixture 2
[25] = Solid stage, 1 week 80° C., tight container, Bulk (HPLC)
[26] = Xenon light (approx. 1200 kLuxh), Bulk (HPLC)
[27] = beagle, dog, plasma, fasting, mean and sd
[28] = deionized water, water, thermodynamic from solid

Aqueous solubility (in words) ([1]; Water): practically insoluble in water
solubility at 5 days ([1]; aqueous buffer, pH 2.19): 125 µg/mL (≈ 242 µM)
solubility at 5 days ([1]; aqueous buffer, pH 3.75): 1.9 µg/mL (≈ 3.66 µM)
solubility at 5 days ([1]; aqueous buffer, pH 5.78): 0.4 µg/mL (≈ 0.772 µM)
solubility at 5 days ([1]; aqueous buffer, pH 10.13): 0.3 µg/mL (≈ 0.579 µM)
solubility at 5 days ([1]; aqueous buffer, pH 11.00): 0.3 µg/mL (≈ 0.579 µM)
solubility at 5 days ([1]; simulated gastric fluid, pH 1.36): 709 µg/mL (≈ 1370 µM)
CL [2, 13]: A
DP [2, 13]: 0.6%
CL [2, 14]: A↓
DP [2, 14]: 0.6%
CL [2, 15]: A
DP [2, 15]: 1.4%
CL [2, 16]: A↓
DP [2, 16]: 0.9%
CL [2, 17]: A↓
DP [2, 17]: 0.6%
CL [2, 18]: A↓
DP [2, 18]: 0.9%
CL [2, 19]: A↓
DP [2, 19]: 27.0%
CL [2, 20]: A↓
DP [2, 20]: >99%
CL [2, 21]: A
DP [2, 21]: 0.7%
CL [2, 22]: A
DP [2, 22]: 0.6%
CL [2, 23]: A
DP [2, 23]: 0.8%
CL [2, 24]: A
DP [2, 24]: 0.5%
Stability in methanol (in words) ([2]; In methanol): stable
CL [2, 25]: A
DP [2, 25]: 0.6%
DP ([2]; Solid state, 1 week 80° C./175% r.h, Bulk (HPLC)): 0.6%
CL ([2]; Solid state, 1 week 80° C./, Bulk (HPLC)): A
DP ([2]; Unstressed): 0.6%
CL [2, 26]: A
DP [2, 26]: 0.6%
optimum pH for aqueous stability ([2]; aqueous): 5
Aqueous stability at higher pH (in words) ([2]; higher pH (9 and 11)): decomposes
solubility ([3]; 0.1N HCl, 25 °C, simulated gastric fluid, read-out: Solubility (approx. at 25° C.) (HPLC)): 200 µg/mL (≈ 386 µM)
solubility ([3]; acetonitrile, 25 °C, organic solvent or mixture, read-out: Solubility (approx. at 25° C.)): 5200 µg/mL (≈ 10000 µM)
solubility ([3]; aqueous medium at pH 3, 25 °C, pH 3, aqueous buffer, read-out: Solubility (approx. at 25° C.) (HPLC)): 0.06 µg/mL (≈ 0.116 µM)
solubility ([3]; aqueous medium at pH 4.5, 25 °C, pH 4.5, aqueous buffer, read-out: Solubility (approx. at 25° C.) (HPLC)): 0.09 µg/mL (≈ 0.174 µM)
Solid ([3]; line after Water under Solubility): No change
solubility ([3]; methanol, 25 °C, organic solvent or mixture, read-out: Solubility (approx. at 25° C.)): 11400 µg/mL (≈ 22000 µM)
Aqueous solubility (in words) ([3]; summary of Table 8): nearly insoluble in water
solubility ([3]; water, 25 °C, water, read-out: Solubility (approx. at 25° C.) (HPLC)): 24 µg/mL (≈ 46.3 µM)
Intrinsic dissolution rate ([4]; HCl 0.1N): 0 mg min^−1 cm^−2
Intrinsic dissolution rate ([4]; Water): 0 mg min^−1 cm^−2
Hygroscopicity from moisture sorption profiles (in words) [5]: non-hygroscopic
Hygroscopicity: After 1 day at 80% r.h. ([5]; 80% r.h., 1 day, 25° C.): 0
Hygroscopicity: After 1 day at 95% r.h. ([5]; 95% r.h., 1 day, 25° C.): 0.1
Crystal modification after 24 hours equilibration (DSC/XRPD/TG) ([6]; 2-propanol): No change
Crystal modification after 24 hours equilibration (DSC/XRPD/TG) ([6]; Acetone): No change
Crystal modification after 24 hours equilibration (DSC/XRPD/TG) ([6]; Acetonitrile): Change
Crystal modification after 24 hours equilibration (DSC/XRPD/TG) ([6]; Ethanol): No change
Crystal modification after 24 hours equilibration (DSC/XRPD/TG) ([6]; Ethyl acetate): No change
Crystal modification after 24 hours equilibration (DSC/XRPD/TG) ([6]; Methanol): No change
Crystal modification after 24 hours equilibration (DSC/XRPD/TG) ([6]; PEG400): No change
Crystal modification after 24 hours equilibration (DSC/XRPD/TG) ([6]; Water): Change
AUC(0-inf) [7, 27]: 5310 ± 4510 ng·h/mL
Cmax [7, 27]: 62.9 ± 74.4 ng/mL
Tmax ([7]; beagle, dog, plasma, fasting, median): 16 h
Tlag ([7]; fasting, median): 1.0 h
Absolute F ([7]; relative to an iv dose of 1.25 mg/kg): 2.32 ± 1.97
pH of 1% solution or suspension [8]: 5.5
Loss on drying by TG ([9]; As is): 3.3%
Thermogravimetry (weight loss in %) ([9]; Heating rate 20 K/min): 3.3%
pKa [10]: ~4.7
Effect of grinding [11]: No change
solubility [12, 28]: 9 µg/mL
solubility at 48 h [12, 28]: 4 µg/mL
pH ([12]; pH of the saturated aqueous solutions): 5.235
SMILES: Cn1c(Nc2ccc(C(F)(F)F)cc2)nc2cc(Oc3ccnc(-c4ncc(C(F)(F)F)[nH]4)c3)ccc21 [API, {1-methyl-5-[2-(5-trifluoromethyl-1H-imidazol-2-yl)-pyridin-4-yloxy]-1H-benzoimidazol-2-yl}-(4-trifluoromethyl-phenyl)amine]
